Each structure is given as a SMILES string. Values joined by “and” are separate entries in the source; they are usually repeats but may differ in a detail not shown here. Identical values can stand only once.

This assay deals with Salmonella Typhi PhoP-promoter GFP reporter, fluorescence, 4 h. The experiment in a line: PhoP regulon inhibitors, Salmonella typhi PhoP promoter GFP reporter, confirmatory (AID 1850).

`O=C(/C=C/c1cccs1)NC(=S)NNC(=O)c1ccccc1O`: the concentration for half-maximal inhibition (IC50) is 35.2 µM.
For the compound `OC1(c2ccc(Cl)cc2)CCN(Cc2c[nH]c3ccccc23)CC1`, the IC50 was 69.5 µM.
With `CN1CCN(CC(=O)N2CCn3c4c(c5cc(C6CCCCC6)ccc53)CCCC42)CC1` (stereo not given) the figure was 32 µM; with `O=C(O)c1sccc1Oc1ccc(F)cc1[N+](=O)[O-]`, 88.7 µM; with `Oc1ccc(C[C@H]2CNCCN2CCCCC2CCCCC2)cc1`, 64.5 µM.
In the case of `CN1CCN(CCCN2c3ccccc3Sc3ccc(C(F)(F)F)cc32)CC1`, the IC50 is 46.4 µM.
The value for `Clc1ccc(CNCc2cccs2)cc1Cl` was 32 µM.
As for `COC(=O)C(C)NC(=S)N1CCN(c2c(F)cc3c(=O)c(C(=O)O)cn(C4CC4)c3c2OC)CC1C` (stereo not given), the IC50 was 17.1 µM.
The value for `CCN1c2ccccc2NC2N=C(OC)C(c3ccccc3)C21` (stereo not given) was 78.9 µM; that for `O=[N+]([O-])c1cc(F)c2cccnc2c1O` was 6.57 µM; that for `Oc1ccc(CN2CCCc3ccccc32)c2cccnc12` was 83 µM.
As to `O=C(O)c1cn(-c2ccc(F)cc2)c2cc(Cl)c(F)cc2c1=O`, the IC50 is 83.7 µM.
With `CCCCCCOC(=O)C[N+](C)(C)CCOC1CC2CCC1(C)C2(C)C` (stereo not given) the figure was 36.5 µM.
Consider `CCn1cc(C(=O)NCC(C)C)c(=O)c2cc(F)c(N3CCN(C)CC3)cc21`, for which the IC50 was 14.9 µM.
Turning to `Clc1ccc(C[n+]2cc(-c3ccc(Cl)cc3)n3c2CCC3)cc1`, the IC50 is 52.4 µM.
Regarding `O=C1c2ccccc2NC(c2ccc(-c3ccc(Br)cc3)o2)N1O` (stereo not given), the IC50 was 35.8 µM.
With `CCn1cc(C(=O)NCCN(C)C)c(=O)c2cc(F)c(N3CCN(C)CC3)cc21` the figure was 23.2 µM; with `COC(=O)C1=C(C)N(Cc2ccccc2)C(=NCc2cccc(C(F)(F)F)c2)N[C@H]1c1cccc(F)c1`, 33.3 µM.
With `Cc1ccc(C(=O)N/C(=C\c2ccc(-c3ccc(Br)cc3)o2)C(=O)NCCCN(C)C)cc1` the figure was 37.1 µM; with `Cc1cc(C)c2sc(N(CCCN(C)C)C(=O)COc3ccc(Cl)cc3)nc2c1`, 30.8 µM; with `O=C(CCN1CCN(c2ccccc2F)CC1)c1ccc(Br)cc1`, 39 µM.
Regarding `CC1CCC(C(C)C)C(OC(=O)Cn2c(-c3ccc(Cl)cc3)[n+](C)c3ccccc32)C1` (stereo not given), the 50% inhibitory concentration (IC50) was 50.4 µM.
With `O=C(CCN1CCN(c2ccccc2)CC1)c1ccc(Br)cc1` the figure was 104 µM.
The value for `O=C(/C=C/c1ccccc1)NC(=S)NNC(=O)c1cnccn1` was 29.7 µM; that for `CC(NCc1ccc(-c2ccccc2)cc1)C(O)c1ccccc1` (stereo not given) was 63.6 µM.
With `CNCc1c(OCc2ccccc2F)ccc2ccccc12` the figure was 79.5 µM; with `C=C1c2cccc(O)c2C(O)=C2C(=O)[C@]3(O)C(O)=C(C(N)=O)C(=O)[C@@H](N(C)C)[C@@H]3[C@@H](O)[C@H]12`, 0.56 µM.
`C=CCNc1ncnc2c1[nH]c1ccc(C)cc12`: the IC50 is 18.9 µM.
With `CSc1nc2cc(Oc3cccc(Cl)c3Cl)c(Cl)cc2[nH]1` the figure was 37.3 µM; with `c1cnc2c(c1)ccc1cccnc12`, 49.3 µM and 39.1 µM; with `Cc1ccc(C)c(Nc2cc(C)nc3ccccc23)c1`, 51.5 µM.
With `COc1cccc(-c2nnc(NC(=O)c3ccc(Cl)s3)o2)c1` the figure was 101 µM.
`O=C(Cc1ccc([N+](=O)[O-])cc1)N/N=C/c1ccc([N+](=O)[O-])o1`: the IC50 was 19.9 µM.
With `Cc1ccc(C(=O)N/N=C\c2ccc([N+](=O)[O-])s2)cn1` the figure was 18.6 µM; with `CCCCCC(=O)NC(=S)NNC(=O)CC`, 133 µM.
With `CCn1cc(C(=O)O)c(=O)c2cc(F)c(N3CCN(C(=S)NC(=O)c4cccc(C)c4)CC3)cc21` the figure was 16 µM.
`Cn1c(-c2ccc3c(c2)OCO3)cnc1NCc1ccc(Cl)cc1`: the IC50 is 81.8 µM.
The value for `Nc1ncn(C2O[C@H](CO)[C@@H](O)[C@H]2O)c(=O)n1` (stereo not given in full) was 34 µM; that for `Fc1cccc(Nc2c3c(nc4ccccc24)CCC3)c1` was 54.3 µM; that for `CCn1cc(C(=O)O)c(=O)c2cnc(N3CCNCC3)nc21` was 25.7 µM.

(Values after PubChem BioAssay AID1850 (Southern Research Specialized Biocontainment Screening …, 2009).)
